From patent publication US5138101A, “Recovery of high-boiling aldehydes from rhodium-catalyzed hydroformylation processes” (Eastman Kodak Company, priority 1991, dated 1992)

Assay: Partitioning (partition coefficient, Kp) of hydroformylation products and hydroformylation solvent between hydroformylation solvent phase and alkanol/water extraction solution phase
Assay type: physicochemical
Excerpt: The extraction process described herein is the equilibration of a particular compound dissolving into two separate liquid phases. The effectiveness of the present extraction process may be measured in terms of the partition coefficient (Kp) for a compound "X" which is defined as: [formula] […] High Kp values give high extraction efficiencies requiring lower amounts of extraction solution. Similarly, it is desirable that the Kp of the hydroformylation solvent be a low value. This simplifies purification of the aldehyde products down-stream. In the hydroformylation of diolefins to dialdehydes, it also is desirable to have Kp values for the dialdehyde products larger than the Kp values of the intermediate mono-aldehyde mono-olefin (formyl-olefin) intermediate formed in the hydroformylation reaction. This permits recycling of the formyl-olefin to the hydroformylation reactor in the hydroformylation solvent for further reaction to the desired dialdehyde product, while selectively extracting the desired di-aldehyde product. Likewise, for the same reason, it is desirable to have low Kp values for the olefin or polyolefin feedstocks used in the process.
The extraction examples were carried out in a 300 mL, 3-neck, glass flask equipped with a Teflon magnetic stir bar, a thermometer to measure the temperature of the liquid, a septum for the use of a syringe, a heating mantle and a nitrogen bubbler blanket for the system. […] […] The mixture was stirred at 25° C. for 30 minutes to reach equilibrium, stirring was stopped, and the mixture was allowed to separate into 2 layers (phases) over a 30 minute period of time. […] Samples of each phase were taken with a syringe and chromatographed on a Hewlett Packard Model 5730 capillary FID gas chromatograph. The instrument used a 30 meter DB-1 column (Supelco.) with a programming rate of a 4 minute hold at 70° C. with a programming rate of 8° C./minute to 250° C. The calculations for the weights of hydroformylation products in each phase were carried out using standard procedures using the dodecane as an internal standard for the catalyst layer and methanol as the internal standard for the aqueous layer. The initial volumes of the two phases were used for estimation of the volumes of the two phases at equilibrium to obtain the concentrations of the products in each phase.
The partition coefficients (Kp) were calculated for the C9-enal and C10-dial products for equilibrium between the dodecane hydroformylation solvent and the extraction solution phases at 25° C.
The two phases in the flask were heated to and maintained at 53° C. with stirring for 30 minutes to reach equilibrium. The mixture was allowed to separate into 2 layers at 53° C. and each layer was sampled and analyzed as described above. […] The partitioning procedure was repeated at 70° C.

CC(C)c1ccc(C(C)C)cc1 [p-diisopropylbenzene]
Partition Coefficient (Example 3, Ref. Ex. 19, MeOH:water 3:1, 29° C.): 0.075
Partition Coefficient (Example 4, Ref. Ex. 19, MeOH:water 3:1, 58° C.): 0.118
Partition Coefficient (Example 5, Ref. Ex. 19, MeOH:water 1.5:1, 58° C.): 0.050
Partition Coefficient (Example 6, Ref. Ex. 19, MeOH:water 1.5:1, 31° C.): 0.018
Partition Coefficient (Example 18, Ref. Ex. 24, EtOH:water 7:4, 52° C.): 0.033
Partition Coefficient (Example 19, Ref. Ex. 24, EtOH:water 7:4, 32° C.): 0.009
Partition Coefficient (Example 24, Ref. Ex. 19, MeOH:water 3:1, 29° C.): 0.075
Partition Coefficient (Example 25, Ref. Ex. 19, MeOH:water 3:1, 58° C.): 0.118
Partition Coefficient (Example 26, Ref. Ex. 19, MeOH:water 1.5:1, 58° C.): 0.050
Partition Coefficient (Example 27, Ref. Ex. 19, MeOH:water 1.5:1, 31° C.): 0.018
Partition Coefficient (Example 28, Ref. Ex. 24, EtOH:water 3:1, 48° C.): 0.298
Partition Coefficient (Example 29, Ref. Ex. 24, EtOH:water 3:1, 33° C.): 0.229
Partition Coefficient (Example 30, Ref. Ex. 24, EtOH:water 7:4, 52° C.): 0.033
Partition Coefficient (Example 31, methanol/water 37/12 mL, 50° C., Na 0): 0.096
Partition Coefficient (Example 32, 50° C., Na 82 mg/L as 2-ethylhexanoate): 0.125
Partition Coefficient (Example 33, 50° C., Na 164 mg/L as 2-ethylhexanoate): 0.115
Partition Coefficient (Example 34, 50° C., Na 327 mg/L as 2-ethylhexanoate): 0.131
Partition Coefficient (Example 35, 50° C., Na 653 mg/L as 2-ethylhexanoate): 0.137
Partition Coefficient (Example 36, 50° C., Na 1307 mg/L as 2-ethylhexanoate): 0.063
Partition Coefficient (Example 37, methanol/water 37/12 mL, 50° C., Na 0): 0.064
Partition Coefficient (Example 38, 50° C., Na 82 mg/L as oleate): 0.083
Partition Coefficient (Example 39, 50° C., Na 164 mg/L as oleate): 0.062
Partition Coefficient (Example 40, 50° C., Na 327 mg/L as oleate): 0.083
Partition Coefficient (Example 41, 50° C., Na 653 mg/L as oleate): 0.052
Partition Coefficient (Example 42, 50° C., Na 1307 mg/L as oleate): 0.063
Partition Coefficient (Example 43, methanol/water 37/12 mL, 50° C., Na 0): 0.074
Partition Coefficient (Example 44, 50° C., Na 82 mg/L as n butyrate): 0.063
Partition Coefficient (Example 45, 50° C., Na 164 mg/L as n butyrate): 0.073
Partition Coefficient (Example 46, 50° C., Na 327 mg/L as n butyrate): 0.053
Partition Coefficient (Example 47, 50° C., Na 653 mg/L as n butyrate): 0.051
Partition Coefficient (Example 48, 50° C., Na 1307 mg/L as n butyrate): 0.038
Partition Coefficient (Example 49, methanol/water 37/27 mL, Na 0): 0.0164
Partition Coefficient (Example 50, methanol/water 37/27 mL, Na 100 as oleate): 0.0210
Partition Coefficient (Example 51, methanol/water 37/27 mL, Na 200 as oleate): 0.0210
Partition Coefficients (Example 52, Ref. Ex. 1, MeOH:water 3:1, 50° C., Na 0): 0.115
Partition Coefficients (Example 54, Ref. Ex. 1, Na 164 mg/L): 0.073
Partition Coefficients (Example 56, Ref. Ex. 11, Na 0): 0.081
Partition Coefficients (Example 58, Ref. Ex. 11, Na 164 mg/L): 0.073
Partition Coefficients (Example 60, Ref. Ex. 12, Na 0): 0.071
Partition Coefficients (Example 62, Ref. Ex. 12, Na 164 mg/L): 0.067
Partition Coefficients (Example 64, Ref. Ex. 7, Na 0): 0.056
Partition Coefficients (Example 66, Ref. Ex. 7, Na 164 mg/L): 0.072
Partition Coefficients (Example 68, Ref. Ex. 13, Na 0): 0.076
Partition Coefficients (Example 70, Ref. Ex. 13, Na 164 mg/L): 0.060
Partition Coefficient (Example 79, VCH product, Ref. Ex. 3, 40 mL methanol, 10 mL water, 50° C.): 0.0859
Partition Coefficient (Example 80, as Example 79 plus 10 mL water): 0.0233
Partition Coefficient (Example 81, as Example 80 plus 10 mL water): 0.0050
Partition Coefficient (Example 82, as Example 81 plus 10 mL water): 0.0017
Partition Coefficient (Example 83, DCPD product, Ref. Ex. 4, procedure of Examples 79-82): 0.0724
Partition Coefficient (Example 84, DCPD product, Ref. Ex. 4, procedure of Examples 79-82): 0.0469
Partition Coefficient (Example 85, DCPD product, Ref. Ex. 4, procedure of Examples 79-82): 0.0269
Partition Coefficient (Example 86, CDDT product, Ref. Ex. 2, 37 mL methanol, 12 mL water, 25° C.): 0.0297
Partition Coefficient (Example 87, as Example 86 plus 10 mL methanol): 0.077
Partition Coefficient (Example C-7, Ref. Ex. 19, DEG:water 3:1, 30° C.): 0.128
Partition Coefficient (Example C-8, Ref. Ex. 19, DEG:water 1.5:1, 25° C.): 0.030
Partition Coefficient (Example C-9, Ref. Ex. 10, PrOH:water 3:1, 50° C.): 0.055
Partition Coefficient (Example C-10, Ref. Ex. 10, PrOH:water 1.5:1, 50° C.): 0.018
Partition Coefficient (Example C-11, Ref. Ex. 10, PrOH:water 1:1, 50° C.): 0.013
Partition Coefficient (Example C-16, Ref. Ex. 19, DEG, no water, 58° C.): 0.128
Partition Coefficient (Example C-17, Ref. Ex. 19, DEG, no water, 33° C.): 0.128
Partition Coefficient (Example C-18, Ref. Ex. 19, DEG:water 3:1, 30° C.): 0.030
Partition Coefficient (Example C-19, Ref. Ex. 19, DEG:water 3:1, 60° C.): 0.014
Partition Coefficient (Example C-20, Ref. Ex. 19, DEG:water 1.5:1, 60° C.): 0.0061
Partition Coefficient (Example C-21, Ref. Ex. 19, DEG:water 1.5:1, 25° C.): 0.0030
Partition Coefficient (Example C-22, Ref. Ex. 10, PrOH:water 3:1, 50° C.): 0.055
Partition Coefficient (Example C-23, Ref. Ex. 10, PrOH:water 1.5:1, 50° C.): 0.0182
Partition Coefficient (Example C-24, Ref. Ex. 10, PrOH:water 1:1, 50° C.): 0.0132
